The text below walks through data of ChEMBL document CHEMBL4828724 (Eur J Med Chem, 2021).

Series [1] has as its target T1, Synaptic vesicular amine transporter (Rattus norvegicus, UniProt Q01827). Put plainly: Inhibition of [3H]DTBZ binding to VMAT2 in rat brain incubated for 30 mins by liquid scintillation spectrometry analysis. The class given is tissue-based.
For series [2], the target named is Synaptic vesicular amine transporter (Rattus norvegicus) (UniProt Q01827). The experiment in a line: Inhibition of [3H]DA uptake at VMAT2 in rat striatal synaptosome at 1 uM incubated for 10 mins followed by [3H]DA addition and measured after 20 mins by TopCount scintillation counting method relative to control. As to conditions: Striatum, time 30.0 min. The series is classed as subcellular.
Synaptic vesicular amine transporter (Rattus norvegicus), sequence (Q01827 whole entry): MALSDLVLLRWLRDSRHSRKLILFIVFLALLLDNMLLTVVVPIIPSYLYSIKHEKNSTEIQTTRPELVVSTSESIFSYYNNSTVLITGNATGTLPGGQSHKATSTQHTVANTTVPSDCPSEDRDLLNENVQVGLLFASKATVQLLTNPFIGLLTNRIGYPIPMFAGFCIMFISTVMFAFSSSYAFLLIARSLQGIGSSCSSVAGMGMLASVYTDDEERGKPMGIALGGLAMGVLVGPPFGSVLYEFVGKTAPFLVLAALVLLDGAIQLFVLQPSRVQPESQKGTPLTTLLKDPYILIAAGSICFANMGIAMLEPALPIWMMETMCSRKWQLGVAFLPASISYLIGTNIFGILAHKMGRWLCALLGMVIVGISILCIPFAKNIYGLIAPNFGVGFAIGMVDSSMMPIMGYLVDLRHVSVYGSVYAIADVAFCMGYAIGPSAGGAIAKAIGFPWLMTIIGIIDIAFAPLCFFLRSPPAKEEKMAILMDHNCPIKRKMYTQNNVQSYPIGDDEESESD

For series [3] the target is unchanged. Put plainly: Inhibition of [3H]DA uptake at VMAT2 in rat striatal synaptosome at 0.1 uM incubated for 10 mins followed by [3H]DA addition and measured after 20 mins by TopCount scintillation counting method relative to control. The settings on record: Striatum, time 30.0 min. The class given is subcellular.
In series [4] the target is T1, Synaptic vesicular amine transporter. Put plainly: Inhibition of [3H]DA uptake at VMAT2 in rat striatal synaptosome incubated for 10 mins followed by [3H]DA addition and measured after 20 mins by TopCount scintillation counting method. The series is classed as subcellular, Striatum.
A short description of series [5]: Metabolic stability in monkey liver microsomes assessed as parent compound remaining at 1 uM in the presence of NADPH measured after 60 mins by LC-MS/MS analysis. The class given is ADME, Macaca mulatta, Microsome. As to conditions: rhesus monkey, liver microsomes, read-out: Stability.
Series [6] in a line: Metabolic stability in mouse liver microsomes assessed as parent compound remaining at 1 uM in the presence of NADPH measured after 60 mins by LC-MS/MS analysis. The series is classed as ADME, Microsome.
The nature of series [7]: Metabolic stability in human liver microsomes assessed as parent compound remaining at 1 uM in the presence of NADPH measured after 60 mins by LC-MS/MS analysis. The class given is ADME, Microsome. As to conditions: read-out: Stability.
Series [8] in a line: Metabolic stability in monkey liver microsomes assessed as intrinsic clearance at 1 uM in the presence of NADPH measured for 60 mins by LC-MS/MS analysis. The series is classed as ADME, Macaca mulatta, Microsome. The settings on record: rhesus monkey, read-out: CLH.
Series [9] is described as follows: Metabolic stability in mouse liver microsomes assessed as intrinsic clearance at 1 uM in the presence of NADPH measured for 60 mins by LC-MS/MS analysis. As to conditions: read-out: CLH. The class given is ADME, Microsome.
The nature of series [10]: Metabolic stability in human liver microsomes assessed as intrinsic clearance at 1 uM in the presence of NADPH measured for 60 mins by LC-MS/MS analysis. As to conditions: read-out: CLH. The series is classed as ADME, Microsome. For orientation: Liver microsomes are vesicles of endoplasmic reticulum, rich in cytochrome P450 enzymes.
A short description of series [11]: Metabolic stability in human liver microsomes assessed as half life at 1 uM in the presence of NADPH measured for 60 mins by LC-MS/MS analysis. The class given is ADME, Microsome.
Series [12] can be described thus: Metabolic stability in mouse liver microsomes assessed as half life at 1 uM in the presence of NADPH measured for 60 mins by LC-MS/MS analysis. The class given is ADME, Microsome.
Series [13] is described as follows: Metabolic stability in monkey liver microsomes assessed as half life at 1 uM in the presence of NADPH measured for 60 mins by LC-MS/MS analysis. The class given is ADME, Macaca mulatta, Microsome. As to conditions: rhesus monkey.

T1 sequence (Q01827 whole entry): as above

Broadly, the IC50 is the concentration at which inhibition is half-maximal. Turning to `CCOc1cc2c(cc1OCC1CC1)C1CC(O)C(CC(C)C)CN1CC2` (stereo not drawn), in series [1], the IC50 is more than 500 nM.
On the same count and under the same terms, then `CC(C)CC1CN2CCc3cc(OCC4CC4)c(OCC4CC4)cc3C2CC1O` (stereo not drawn), with 210 nM.
By inhibition is commonly meant the change of the read-out against control, counted positive when it falls. Consider `COc1cc2c(cc1OC)C1CC(O)(C#N)C(CC(C)C)CN1CC2` (stereo not drawn), for which the IC50 in series [1] turned out to be 87 nM; in series [4], 27.9 nM. In addition, the inhibition in series [2] came to 93.7%; in [3] it was 85%.
Regarding `COCCCOc1cc2c(cc1OC)C1CC(O)C(CC(C)C)CN1CC2` (stereo not drawn), the inhibition in series [2] was found to be 92.1%; in series [3], 84.9%. In addition, in [4], the 50% inhibitory concentration (IC50) amounted to 64.9 nM.
`CCCOc1cc2c(cc1OC(C)C)CCN1CC(CC(C)C)C(O)CC21` (stereo not drawn) returned an IC50 in series [1] of more than 500 nM.
The term half-life denotes the time needed for the level to fall by half in the phase considered. With `COc1cc2c(cc1OCC1CC1)CCN1CC(CC(C)C)C(O)CC21` (stereo not drawn), the remaining at 1 h, 1 µM in series [5] amounted to 17.6%; in [7], 74.7%. The Stability in series [6] (microsomes, 1 h, 1 µM) came out at 22.6%. Also, the CLint scaled at 1 µM in series [8] was 72.4 mL/min/kg; in series [9], 522 mL/min/kg; in series [10] it was 19.4 mL/min/kg. The 50% inhibitory concentration (IC50) in series [1] was found to be 5.99 nM; in series [4], 17.8 nM. For the same compound, the values for the inhibition in series [2] and in series [3] were 99.2% and 96%, respectively. Further, the half-life at 1 µM in [11] was 128 min; in series [13], 25.9 min. The t1/2 in [12] (microsomes, 1 h, 1 µM) amounted to 10.5 min.
`CCOc1cc2c(cc1OC)CCN1CC(CC(C)C)C(O)CC21` (stereo not drawn): the IC50 in series [1] is more than 500 nM.
Regarding `COc1cc2c(cc1OC)C1CC(O)(CO)C(CC(C)C)CN1CC2` (stereo not drawn), the results for the CLint scaled at 1 µM in [9] and in series [10] were 143 mL/min/kg and 109 mL/min/kg, respectively. Moreover, the results for the IC50 in series [1] and in [4] were 8.02 nM and 5.14 nM, respectively. Also, the inhibition in series [2] was 99.7%; in series [3], 99.1%.
On to `COc1cc2c(cc1OC)C1CC(=O)C(CC(C)C)CN1CC2` (stereo not drawn) [TETRABENAZINE], for which the remaining at 1 h, 1 µM in [5] was 10.5%; in [6] (liver microsomes, read-out: Stability) it was 13.4%; in series [7], 30.8%. The CLint scaled at 1 µM in series [8] is 149 mL/min/kg; in [9], 254 mL/min/kg; in series [10] it was 76 mL/min/kg. The figures for the half-life at 1 µM in series [11], in series [12] (liver microsomes) and in [13] were 32.8 min, 21.6 min and 12.6 min, respectively.
In [1], `CCOc1cc2c(cc1OCCCOC)C1CC(O)C(CC(C)C)CN1CC2` (stereo not drawn) gave a half-inhibitory concentration (IC50) of 73.2 nM.
`COc1cc2c(cc1OC)C1CC(N)C(CC(C)C)CN1CC2` (stereo not drawn): in series [1], the IC50 was 102 nM. The inhibition in series [2] turned out to be 87.9%; in series [3], 72.8%.
